Measured values reported in patent publication US20260076902A1, “LIQUID, STORAGE STABLE, DIRECTLY INJECTABLE, PANTOPRAZOLE FORMULATIONS, THEIR USES AND MANUFACTURING” (Etico Lifesciences Private Limited, priority 2024, published 2026).

Assay: Dilution with 0.9% sodium chloride solution, precipitation
Format: physicochemical
Conditions: alpha tocopherol tested as stabilizer

In the case of Cc1c(C)c2c(c(C)c1O)CC[C@@](C)(CCC[C@H](C)CCC[C@H](C)CCCC(C)C)O2 [Alpha tocopherol], the “behaviour upon dilution with 0.9% sodium chloride solution” value is reported as “precipitation was formed”.
